Test results from the NIST ThermoML archive (doi:10.1016/j.tca.2018.07.003).
± gives the expanded uncertainty stated by the source. Each block holds one molecule with its values, some of them ahead of it.

Key:
[1] = heat capacity at constant pressure per volume; wn = mass fraction of the nth substance listed; conditions: 295 K, 77 kPa, Liquid, From thermal conductivity and thermal effusivity measured separately
[2] = wn = mass fraction of the nth substance listed; conditions: 295 K, 77 kPa, Liquid, transient hot wire
[3] = 295 K; 77 kPa; Liquid; transient hot wire

Compound: CC(C)CC(C)(C)C [2,2,4-trimethylpentane] + CCCCCCC
heat capacity ([1]; w1 = 0.2): 1390000 ± 90000 J/K/m3 | heat capacity ([1]; w1 = 0.4): 1310000 ± 90000 J/K/m3 | heat capacity ([1]; w1 = 0.6): 1310000 ± 80000 J/K/m3 | heat capacity ([1]; w1 = 0.8): 1290000 ± 80000 J/K/m3 | heat capacity ([1]; w1 = 1): 1340000 ± 90000 J/K/m3 | thermal conductivity ([2]; w1 = 0.2): 0.116 ± 0.004 W/m/K | thermal conductivity ([2]; w1 = 0.4): 0.113 ± 0.004 W/m/K | thermal conductivity ([2]; w1 = 0.6): 0.107 ± 0.004 W/m/K | thermal conductivity ([2]; w1 = 0.8): 0.104 ± 0.004 W/m/K | thermal conductivity ([2]; w1 = 1): 0.096 ± 0.004 W/m/K

Compound: CC(C)CC(C)(C)C [2,2,4-trimethylpentane]
thermal conductivity [3]: 0.096 ± 0.004 W/m/K

Compound: OCC(O)CO [glycerol]
thermal conductivity [3]: 0.289 ± 0.01 W/m/K

Compound: OCCO [1,2-ethanediol]
thermal conductivity [3]: 0.254 ± 0.01 W/m/K

Compound: CCCCCCC [heptane]
thermal conductivity [3]: 0.119 ± 0.004 W/m/K

Second part, the molecule after the results:

heat capacity ([1]; w2 = 0): 1480000 ± 100000 J/K/m3 | thermal conductivity ([2]; w2 = 0): 0.119 ± 0.004 W/m/K
Compound: CCCCCCC [heptane] + CC(C)CC(C)(C)C

thermal conductivity [3]: 0.6 ± 0.02 W/m/K
Compound: O [water]

thermal conductivity [3]: 0.208 ± 0.008 W/m/K
Compound: CO [methanol]
